Measurements published in PubChem BioAssay AID179 (DTP/NCI, 2004).
Calls of active or inactive are those of the source.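 How the source made its calls: active means compounds giving half or more protection of infected cells from virus-caused growth loss, again on retest; inactive means the rest.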

Tested on: CEM cells HIV-1 protection, formazan growth assay
Assay: NCI AIDS Antiviral Assay
Details: for IC50: measured here: growth of uninfected CEM cells
How it was run: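 Human CEM cells, uninfected and HIV-1-infected, received five drug concentrations, and growth was read by soluble formazan assay. Compounds giving at least 50% protection were retested; reproducible 100% protection defined confirmed active.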

| Structure (SMILES) | EC50 | IC50 | outcome |
| --- | --- | --- | --- |
| C[C@]12CC[C@H](CCC=C(c3cc(Cl)c(O)c(C(=O)O)c3)c3cc(Cl)c(O)c(C(=O)O)c3)C[C@@H]1CC[C@@H]1[C@@H]2CC[C@]2(C)[C@@H](CCC=C(c3cc(Cl)c(O)c(C(=O)O)c3)c3cc(Cl)c(O)c(C(=O)O)c3)CC[C@@H]12 | 6.61 µM | 110 µM |  |
| CSC1=N[C@H](c2ccccc2)CS1 | > 200 µM | > 200 µM |  |
| CC(=O)C(=Cc1cccc(C)c1)C(C)=O | > 339 µM | 17.8 µM |  |
| CC1(CC(=O)O)OC2CCCCCC2O1 (configuration not stated) (tested in a mixture with another compound) |  |  | inactive |
| CC1CSc2nc3[nH]c(=S)[nH]c3c(=O)n2C1 (configuration not stated) | > 200 µM | > 200 µM |  |
| C/C(=N\NC(=S)NC1CCCC1)c1ccccn1 | > 2 µM | 0.0151 µM |  |
| C=C(CCOC)CCC1CCCCC(=C)[C@H]1O (some centres not stated) | > 200 µM | > 200 µM |  |
| O=C(O)C(F)(OC(F)(F)C(F)(OC(F)(F)C(F)(F)C(F)(F)F)C(F)(F)F)C(F)(F)F (configuration not stated) | > 200 µM | > 200 µM |  |
| CCOC(=O)C1C(=O)[C@H](C(=O)OC)C2CCCC3CCCC1N32 (some centres not stated) | > 200 µM | > 200 µM |  |
| CCOC(=O)CCC(NC(=O)c1ccc(Nc2nc3ccc(C(F)(F)F)cc3nc2-c2ccccc2)cc1)C(=O)OCC (configuration not stated) | > 200 µM | 141 µM |  |
| CCCCC1(NN=C2CCCCC2)C(=O)N(c2ccccc2)N(c2ccccc2)C1=O | > 200 µM | 102 µM |  |
| CSCCC(NCc1c(O)ccc2ccc(=O)oc12)C(=O)O (configuration not stated) | > 200 µM | > 200 µM |  |
| O=C1/C(=C/c2ccccc2)CCc2ccccc21 | > 200 µM | 11.5 µM |  |
| O=C(O)CCNC(=O)OCc1ccccc1 | > 200 µM | > 200 µM |  |
| O=C(OC1C2OC(=O)c3cc(O)c(O)c(O)c3Oc3cc4c(c(O)c3O)-c3c(cc(O)c(O)c3O)C(=O)OCC3OC(O)C(OC(=O)c5cc(O)c(O)c(O)c5Oc5cc6c(c(O)c5O)-c5c(cc(O)c(O)c5O)C(=O)OC1C(COC6=O)OC2O)C(OC(=O)c1cc(O)c(O)c(O)c1)C3OC4=O)c1cc(O)c(O)c(O)c1 (configuration not stated) | > 69.2 µM | 34.7 µM |  |
| O=C(O)c1cc(=O)c2c([nH]c3ccccc32)s1 |  |  | inactive |
| O=C1CCC2=NCc3c(ccc4ccccc34)N12 | > 398 µM | 347 µM |  |
| O=C(O)CSc1c([N+](=O)[O-])cc(C(F)(F)F)cc1[N+](=O)[O-] | > 200 µM | 43.7 µM |  |
| COC(=O)c1c[nH]c(=O)[nH]c1=O | > 200 µM | > 200 µM |  |
| COc1cc2c(cc1OC)CC(=O)c1cc(OC)c(OC)cc1/C=C\2 | > 12.6 µM | 7.59 µM |  |

| Structure (SMILES) | EC50 | IC50 | outcome |
| --- | --- | --- | --- |
| COc1onc(C)c1CC(=O)O | > 200 µM | > 200 µM |  |
| O=C(NC(=O)c1ccccc1)Nc1ccccc1 | > 14.1 µM | > 14.1 µM |  |
| CN(CCO)c1nc(N)cc(=O)[nH]1 | > 1350 µM | > 1350 µM |  |
| Cc1[nH]c2ccccc2c1C(c1c(C)[nH]c2ccccc12)c1c(C)[nH]c2ccccc12 | 0.0631 µM | 58.9 µM |  |
| N[C@H](C(=O)O)[C@@H]1CC(Cl)=NO1 | > 15.1 µM | > 15.1 µM |  |
| C=CCc1oc(C)nc1CCCC | > 200 µM | > 200 µM |  |
| O=C(OCc1ccccc1)N(CCCCN(CCCNCc1ccccc1)C(=O)OCc1ccccc1)CCCNCc1ccccc1 | > 2 µM | 0.871 µM |  |
| COC(=O)c1cc(C(=CCN[C@@H]2CC[C@@]3(C)[C@@H](CC[C@@H]4[C@@H]3CC[C@]3(C)[C@@H]([C@H](C)CCCC(C)C)CC[C@@H]43)C2)c2cc(Cl)c(OC)c(C(=O)OC)c2)cc(Cl)c1OC | > 100 µM | > 100 µM |  |
| COC(=O)[C@H](Cc1ccccc1)NP(=O)(O)OCC1C=CC(n2cc(C)c(=O)[nH]c2=O)O1 (some centres not stated) | 8.71 µM | > 200 µM |  |
| COc1ccc2[nH]c(Br)c(CCNC(C)=O)c2c1 | > 200 µM | > 200 µM |  |
| O=C(/C=C\c1ccccc1)Oc1ccc(/C=C2\CCCCC2=O)cc1 | > 200 µM | 7.08 µM |  |
| O=[N+]([O-])/C(C(Cl)=C(Cl)Cl)=C1\NCCO1 | > 200 µM | 115 µM |  |
| N#CC(C(N)=O)C(CC(=O)c1ccccc1)c1ccccc1 (configuration not stated) | > 200 µM | 145 µM |  |
| Cc1cc2c(C(C)C)c(O)c(O)c(C=O)c2c(O)c1-c1c(C)cc2c(C(C)C)c(O)c(O)c(C=O)c2c1O | > 200 µM | 1.23 µM | inactive |
| C[C@H]1[C@H](NC(=O)/C(=N\OC(C)(C)C(=O)O)c2csc(N)n2)C(=O)N1S(=O)(=O)O | > 575 µM | > 575 µM |  |
| COC(=O)C1=C(CS(=O)c2ccccc2[N+](=O)[O-])C2C=CC1C2 (configuration not stated) |  |  | inactive |
| CC(C)OP(=S)(NC(=S)c1ccccc1)OC(C)C | > 741 µM | 178 µM |  |
| CSc1nc(Cl)c2c(n1)Sc1nc3ccccc3n1N=C2 | > 100 µM | 55 µM |  |
| O=C(O)[C@H]1CSCN1C(=O)c1ccccc1SSc1ccccc1C(=O)N1CSC[C@H]1C(=O)O | > 200 µM | > 200 µM |  |
| Cc1ccc(NC(=O)/C(Cc2cc(=O)oc3cc(O)ccc23)=N\NC(=O)C[N+](C)(C)C)cc1C | > 186 µM | > 186 µM |  |

| Structure (SMILES) | EC50 | IC50 | outcome |
| --- | --- | --- | --- |
| CCOC(=O)N1CCC2(CC1)CC(=O)N(Nc1ccccc1)C2=O | > 200 µM | 36.3 µM |  |
| COc1ccc2c(c1)-c1c(c3ccccc3n1CCN1CCOCC1)CC2 |  |  | inactive |
| O=C1N=C(SC(SC2=NC(=O)C3(NN2)c2ccccc2-c2ccccc23)=C(SC2=NC(=O)C3(NN2)c2ccccc2-c2ccccc23)SC2=NC(=O)C3(NN2)c2ccccc2-c2ccccc23)NNC12c1ccccc1-c1ccccc12 | > 91.2 µM | 42.7 µM |  |
| CCOC(=O)C1C(C)C2(C#N)C(=N)OC1(C)C2(C#N)C#N (configuration not stated) | > 200 µM | 83.2 µM |  |
| CC1=NNC(=O)C1C1CC(c2c[nH]c3ccccc23)=NNC1=NCc1ccccc1 (configuration not stated) | 4.68 µM | 50.1 µM |  |
| COC(=O)CCCCC(c1cc(Cl)c(OC)c(C(=O)OC)c1)c1cc(Cl)c(OC)c(C(=O)OC)c1 | > 200 µM | 13.5 µM |  |
| CCOc1ccc(NC(=O)CC2SC(=Nc3ccc(C)cc3C)NC2=O)cc1 (configuration not stated) | > 66.1 µM | > 66.1 µM |  |
| Cc1cc(C23OC4COC(C)(C)OC4C2OC(C)(C)O3)ncn1 (configuration not stated) | > 200 µM | > 200 µM |  |
| O=C(O)CC12C3C4C5C3C1C5C42 (configuration not stated) | > 575 µM | > 575 µM |  |
| c1cc(C2N3CCCN2CC3)ccn1 (configuration not stated) |  |  | inactive |
| COC(=O)c1c(C)cccc1/C=C1\Cc2cc(C)cc(C)c2C1=O | > 200 µM | 151 µM |  |
| NNC(=O)N/N=C1\CNC(=O)C(=O)C1c1nc2ccccc2s1 (configuration not stated) |  |  | inactive |
| Cn1c2c(c3ccccc31)C1CCCCC1C1C(=O)NC(=O)C21 (configuration not stated) |  |  | inactive |
| CCN(CC)c1ccc2c(c1)Oc1cc(N(CC)CC)ccc1C21c2ccccc2C(=O)N1c1ccccc1 | > 200 µM | > 200 µM |  |
| COC(=O)c1ccccc1CC1Cc2cc3c(cc2C1)CCC3 | > 200 µM | 38 µM |  |
| CN1CCN(CCSc2nnc(-c3cc4ccccc4s3)c3ccccc23)CC1 | > 162 µM | 12.9 µM |  |
| ClCCCSSCCCCl | > 200 µM | 31.6 µM |  |
| CC(NC1=NCCO1)c1ccco1 (configuration not stated) | > 200 µM | > 200 µM |  |
| COc1ccc2c(c1)OC[C@@H]1c3cc4c(cc3O[C@H]21)OCO4 | > 63.1 µM | > 63.1 µM |  |
